In ChEMBL document CHEMBL3856231 (J Med Chem, 2016):

Tests used:
[1] = Half life in cynomolgus monkey liver microsomes by LC/MS/MS analysis; assay type: ADME, Macaca fascicularis
Focal adhesion kinase 1 = Focal adhesion kinase 1 (Homo sapiens, UniProt Q05397); test: Inhibition of human FAK expressed in baculovirus after 30 mins using biotinyl-amino-hexanoyl-EQEDEPEGDYFEWLE-amide as substrate by TRF assay
[2] = Dose normalized AUC in cynomolgus monkey at 10 mg/kg, po by LC/MS/MS analysis; assay type: ADME, organism-based, Macaca fascicularis; details: in vivo
Insulin receptor [3] = biological target: T1, Insulin receptor (Homo sapiens, UniProt P06213)
T1 sequence (P06213 28-758 limits assumed): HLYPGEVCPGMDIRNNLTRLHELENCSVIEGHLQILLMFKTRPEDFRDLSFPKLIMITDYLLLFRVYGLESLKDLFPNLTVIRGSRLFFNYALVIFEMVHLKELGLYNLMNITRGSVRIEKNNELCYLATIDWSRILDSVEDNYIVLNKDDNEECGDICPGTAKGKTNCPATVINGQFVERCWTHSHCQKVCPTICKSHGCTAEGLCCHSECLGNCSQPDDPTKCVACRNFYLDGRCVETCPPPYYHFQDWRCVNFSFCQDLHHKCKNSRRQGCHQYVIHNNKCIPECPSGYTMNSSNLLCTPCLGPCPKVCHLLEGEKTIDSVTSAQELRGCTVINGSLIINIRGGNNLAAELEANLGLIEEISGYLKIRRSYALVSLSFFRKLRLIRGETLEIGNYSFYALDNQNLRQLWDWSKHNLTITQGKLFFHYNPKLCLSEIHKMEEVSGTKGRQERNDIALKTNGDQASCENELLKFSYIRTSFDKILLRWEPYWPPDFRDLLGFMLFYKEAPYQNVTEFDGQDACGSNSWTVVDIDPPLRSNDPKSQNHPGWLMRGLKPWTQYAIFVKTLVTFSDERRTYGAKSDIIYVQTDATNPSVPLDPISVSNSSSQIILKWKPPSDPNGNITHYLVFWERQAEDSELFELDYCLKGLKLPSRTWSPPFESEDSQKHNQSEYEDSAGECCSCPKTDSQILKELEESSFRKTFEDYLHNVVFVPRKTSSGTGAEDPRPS
T1 sequence (P06213 763-1382 limits assumed): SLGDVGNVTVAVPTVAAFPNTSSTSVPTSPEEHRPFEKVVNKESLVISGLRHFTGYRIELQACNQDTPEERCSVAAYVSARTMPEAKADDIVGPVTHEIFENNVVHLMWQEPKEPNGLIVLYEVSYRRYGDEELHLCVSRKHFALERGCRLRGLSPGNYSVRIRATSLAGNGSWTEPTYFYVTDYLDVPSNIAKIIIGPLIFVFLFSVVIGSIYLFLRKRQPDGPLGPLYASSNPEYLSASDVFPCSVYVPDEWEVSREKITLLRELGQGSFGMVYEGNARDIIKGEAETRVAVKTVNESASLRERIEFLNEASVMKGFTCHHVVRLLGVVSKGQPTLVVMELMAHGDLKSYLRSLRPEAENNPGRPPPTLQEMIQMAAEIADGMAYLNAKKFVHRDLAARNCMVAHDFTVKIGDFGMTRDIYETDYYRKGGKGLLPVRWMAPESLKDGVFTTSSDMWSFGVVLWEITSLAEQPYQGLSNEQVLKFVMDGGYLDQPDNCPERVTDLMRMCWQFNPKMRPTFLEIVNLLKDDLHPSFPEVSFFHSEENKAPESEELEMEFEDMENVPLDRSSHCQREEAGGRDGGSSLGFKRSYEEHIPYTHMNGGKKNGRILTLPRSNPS
Description: Inhibition of INSR (unknown origin) by cell based assay

[4] = Drug metabolism in human liver microsomes assessed as oxidative/degradative M2 metabolite formation at 10 uM after 120 mins in presence of NADPH by LC/MS/MS analysis; assay type: ADME; details: 2 h
[5] = biological target: Voltage-gated inwardly rectifying potassium channel KCNH2 (Homo sapiens, UniProt Q12809); test: Inhibition of human ERG
[6] = AUC (0 to infinity) in Sprague-Dawley rat at 5 mg/kg, po by LC/MS/MS analysis; assay type: ADME, organism-based; design: dose 5 mg/kg, time infinity, route oral; details: in vivo
[7] = Drug metabolism in rat liver microsomes assessed as oxidative/degradative M1 metabolite formation at 10 uM after 120 mins in presence of NADPH by LC/MS/MS analysis; assay type: ADME; details: 2 h
[8] = Drug metabolism in human liver microsomes assessed as oxidative/degradative M1 metabolite formation at 10 uM after 120 mins in presence of NADPH by LC/MS/MS analysis; assay type: ADME; details: 2 h
[9] = Drug metabolism in rat liver microsomes assessed as oxidative/degradative M2 metabolite formation at 10 uM after 120 mins in presence of NADPH by LC/MS/MS analysis; assay type: ADME; details: 2 h
Cytochrome P450 2D6 = Cytochrome P450 2D6 (Homo sapiens, UniProt P10635); test: Inhibition of CYP2D6 in human liver microsomes using dextromethorphan as substrate in presence of NADPH by LC/MS/MS analysis; assay type: ADME
Sequence of Cytochrome P450 2D6 (P10635 whole entry): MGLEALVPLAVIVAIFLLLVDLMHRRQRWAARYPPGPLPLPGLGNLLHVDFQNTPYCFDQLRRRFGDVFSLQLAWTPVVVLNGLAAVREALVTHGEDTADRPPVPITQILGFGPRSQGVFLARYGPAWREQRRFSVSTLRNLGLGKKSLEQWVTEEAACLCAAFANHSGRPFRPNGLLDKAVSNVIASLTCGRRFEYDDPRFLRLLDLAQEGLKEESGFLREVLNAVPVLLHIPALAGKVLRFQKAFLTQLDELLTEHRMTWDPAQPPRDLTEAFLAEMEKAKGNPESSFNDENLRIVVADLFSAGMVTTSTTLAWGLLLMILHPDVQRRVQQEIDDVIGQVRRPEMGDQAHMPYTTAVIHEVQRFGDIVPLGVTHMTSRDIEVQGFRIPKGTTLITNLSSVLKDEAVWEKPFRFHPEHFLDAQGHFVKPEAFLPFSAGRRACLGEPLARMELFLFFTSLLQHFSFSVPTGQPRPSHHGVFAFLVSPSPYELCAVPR

[10] = Dose normalized AUC in Sprague-Dawley rat at 5 mg/kg, po by LC/MS/MS analysis; assay type: ADME, organism-based; details: in vivo
[11] = Drug metabolism in human liver microsomes assessed as oxidative/degradative M6 metabolite formation at 10 uM after 120 mins in presence of NADPH by LC/MS/MS analysis; assay type: ADME; details: 2 h
[12] = Drug metabolism in rat liver microsomes assessed as oxidative/degradative M6 metabolite formation at 10 uM after 120 mins in presence of NADPH by LC/MS/MS analysis; assay type: ADME; details: 2 h
Cytochrome P450 2C9 = Cytochrome P450 2C9 (Homo sapiens, UniProt P11712); test: Inhibition of CYP2C9 in human liver microsomes using diclofenac as substrate in presence of NADPH by LC/MS/MS analysis; assay type: ADME
Sequence of Cytochrome P450 2C9 (P11712 whole entry): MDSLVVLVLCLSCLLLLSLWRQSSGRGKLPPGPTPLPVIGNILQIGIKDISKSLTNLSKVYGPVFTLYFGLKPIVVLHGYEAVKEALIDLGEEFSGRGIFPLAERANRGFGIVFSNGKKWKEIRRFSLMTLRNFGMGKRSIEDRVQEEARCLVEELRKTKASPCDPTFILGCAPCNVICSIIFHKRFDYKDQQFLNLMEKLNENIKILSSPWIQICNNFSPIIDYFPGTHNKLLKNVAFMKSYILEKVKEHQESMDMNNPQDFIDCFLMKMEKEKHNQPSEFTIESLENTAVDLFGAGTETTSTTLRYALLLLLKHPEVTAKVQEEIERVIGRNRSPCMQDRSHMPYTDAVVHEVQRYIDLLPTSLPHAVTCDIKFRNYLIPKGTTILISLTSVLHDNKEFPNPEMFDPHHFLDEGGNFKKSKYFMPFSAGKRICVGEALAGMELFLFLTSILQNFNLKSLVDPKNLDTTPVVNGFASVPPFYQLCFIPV

[13] = Drug metabolism in rat liver microsomes assessed as oxidative/degradative M5 metabolite formation at 10 uM after 120 mins in presence of NADPH by LC/MS/MS analysis; assay type: ADME; details: 2 h
[14] = Half life in human liver microsomes by LC/MS/MS analysis; assay type: ADME
[15] = (§1) Drug metabolism in human liver microsomes assessed as (1S,5R,6S,7R)-7-[5-Chloro-2-((S)-1-methoxy-7-morpholin-4-yl-6,7,8,9-tetrahydro-5H-benzocyclohepten-2-ylamino)-pyrimidin-4-ylamino]-3-oxa-tricyclo[3.2.1.0(2,4)]octane-6-carboxylic acid amide formation at 10 uM after 120 mins in presence of NADPH by LC/MS/MS analysis; assay type: ADME; details: 2 h
[16] = biological target: ALK tyrosine kinase receptor (Homo sapiens, UniProt Q9UM73); test: Inhibition of NPM-ALK phosphorylation in human SUP-M2 cells after 2 to 3 hrs by ELISA; assay type: cell-based
Sequence of ALK tyrosine kinase receptor (Q9UM73 19-1620 limits assumed): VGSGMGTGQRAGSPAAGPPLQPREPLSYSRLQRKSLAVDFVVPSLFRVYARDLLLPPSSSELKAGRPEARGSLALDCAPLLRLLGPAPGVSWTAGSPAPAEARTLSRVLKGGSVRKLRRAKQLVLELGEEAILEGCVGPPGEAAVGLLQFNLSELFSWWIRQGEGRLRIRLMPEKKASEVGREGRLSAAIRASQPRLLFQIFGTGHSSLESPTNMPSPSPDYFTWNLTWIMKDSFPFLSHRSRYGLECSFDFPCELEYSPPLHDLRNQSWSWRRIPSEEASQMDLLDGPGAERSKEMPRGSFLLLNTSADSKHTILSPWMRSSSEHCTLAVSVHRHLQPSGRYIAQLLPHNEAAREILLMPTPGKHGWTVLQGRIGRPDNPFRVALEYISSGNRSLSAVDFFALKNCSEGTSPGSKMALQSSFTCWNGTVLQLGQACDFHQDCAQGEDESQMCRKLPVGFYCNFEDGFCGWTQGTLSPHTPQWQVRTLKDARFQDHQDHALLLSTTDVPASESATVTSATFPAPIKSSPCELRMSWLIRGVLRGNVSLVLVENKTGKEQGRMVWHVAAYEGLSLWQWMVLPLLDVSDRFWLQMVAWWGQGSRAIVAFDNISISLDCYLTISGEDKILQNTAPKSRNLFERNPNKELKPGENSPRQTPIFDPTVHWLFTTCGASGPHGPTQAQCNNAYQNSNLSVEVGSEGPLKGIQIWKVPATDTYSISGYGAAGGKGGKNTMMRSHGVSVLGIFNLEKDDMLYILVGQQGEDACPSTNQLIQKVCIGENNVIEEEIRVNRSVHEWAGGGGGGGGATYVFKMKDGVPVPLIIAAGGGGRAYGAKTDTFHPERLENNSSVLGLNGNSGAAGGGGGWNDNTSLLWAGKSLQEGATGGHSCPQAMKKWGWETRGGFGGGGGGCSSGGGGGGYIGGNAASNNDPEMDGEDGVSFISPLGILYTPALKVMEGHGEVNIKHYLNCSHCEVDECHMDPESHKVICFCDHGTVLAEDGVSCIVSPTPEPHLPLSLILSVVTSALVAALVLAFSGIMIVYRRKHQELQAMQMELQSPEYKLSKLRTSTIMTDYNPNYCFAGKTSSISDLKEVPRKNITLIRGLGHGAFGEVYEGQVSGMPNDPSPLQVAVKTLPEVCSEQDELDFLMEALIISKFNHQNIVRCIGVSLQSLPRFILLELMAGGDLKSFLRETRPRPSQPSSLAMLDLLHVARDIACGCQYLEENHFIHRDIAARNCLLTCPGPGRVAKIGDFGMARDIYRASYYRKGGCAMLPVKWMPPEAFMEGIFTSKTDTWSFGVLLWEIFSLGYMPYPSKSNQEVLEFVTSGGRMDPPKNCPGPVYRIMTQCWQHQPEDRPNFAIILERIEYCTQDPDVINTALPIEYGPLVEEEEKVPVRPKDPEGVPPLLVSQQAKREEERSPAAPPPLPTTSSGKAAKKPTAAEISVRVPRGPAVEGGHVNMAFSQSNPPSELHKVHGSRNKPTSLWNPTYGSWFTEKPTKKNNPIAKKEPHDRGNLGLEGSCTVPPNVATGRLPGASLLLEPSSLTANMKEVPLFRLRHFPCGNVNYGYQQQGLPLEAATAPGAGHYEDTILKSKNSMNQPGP

Cytochrome P450 2C19 = Cytochrome P450 2C19 (Homo sapiens, UniProt P33261); test: Inhibition of CYP2C19 in human liver microsomes using S-mephenytoin as substrate in presence of NADPH by LC/MS/MS analysis; assay type: ADME
Sequence of Cytochrome P450 2C19 (P33261 whole entry): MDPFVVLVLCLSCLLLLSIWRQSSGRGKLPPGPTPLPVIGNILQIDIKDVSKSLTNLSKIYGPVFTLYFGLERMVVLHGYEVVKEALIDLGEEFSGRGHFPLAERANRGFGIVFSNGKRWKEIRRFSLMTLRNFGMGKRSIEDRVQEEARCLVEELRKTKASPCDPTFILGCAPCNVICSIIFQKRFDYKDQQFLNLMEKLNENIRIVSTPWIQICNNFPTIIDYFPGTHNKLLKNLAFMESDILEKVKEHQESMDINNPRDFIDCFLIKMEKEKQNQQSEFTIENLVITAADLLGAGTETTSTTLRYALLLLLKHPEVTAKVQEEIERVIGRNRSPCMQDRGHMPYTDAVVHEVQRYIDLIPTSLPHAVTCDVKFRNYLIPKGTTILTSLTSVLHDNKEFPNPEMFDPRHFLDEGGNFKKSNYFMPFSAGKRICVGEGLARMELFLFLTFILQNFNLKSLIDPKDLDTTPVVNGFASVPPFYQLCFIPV

[17] = Half life in rat liver microsomes by LC/MS/MS analysis; assay type: ADME
Insulin receptor [18] = biological target: T1, Insulin receptor; remark: listed apart in the source
Description: Inhibition of recombinant human INSR expressed in baculovirus using ATP as substrate after 15 mins by TRF assay

[19] = as §1, with “rat” for “human”; assay type: ADME; details: 2 h
[20] = Dose normalized AUC in CD-1 mouse at 10 mg/kg, po by LC/MS/MS analysis; assay type: ADME, organism-based; details: in vivo
[21] = Half life in CD-1 mouse liver microsomes by LC/MS/MS analysis; assay type: ADME
Cytochrome P450 1A2 = biological target: T2, Cytochrome P450 1A2 (Homo sapiens, UniProt P05177); test: Inhibition of CYP1A2 in human liver microsomes using phenacetin as substrate in presence of NADPH by LC/MS/MS analysis; assay type: ADME
T2 sequence (P05177 whole entry): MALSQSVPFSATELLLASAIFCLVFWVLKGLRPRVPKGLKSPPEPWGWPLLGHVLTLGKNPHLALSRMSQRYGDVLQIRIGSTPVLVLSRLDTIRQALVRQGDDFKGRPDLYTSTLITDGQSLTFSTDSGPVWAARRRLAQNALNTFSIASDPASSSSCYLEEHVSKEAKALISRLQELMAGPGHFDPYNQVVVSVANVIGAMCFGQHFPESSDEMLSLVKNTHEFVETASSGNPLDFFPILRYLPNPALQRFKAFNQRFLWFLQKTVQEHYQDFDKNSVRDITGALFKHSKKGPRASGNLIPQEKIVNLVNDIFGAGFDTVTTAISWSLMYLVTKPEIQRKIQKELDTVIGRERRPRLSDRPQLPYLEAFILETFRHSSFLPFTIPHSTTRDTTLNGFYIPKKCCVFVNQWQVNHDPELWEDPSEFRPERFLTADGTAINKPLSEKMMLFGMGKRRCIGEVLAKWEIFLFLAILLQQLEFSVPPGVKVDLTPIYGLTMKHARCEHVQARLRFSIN

[22] = Drug metabolism in human liver microsomes assessed as oxidative/degradative M5 metabolite formation at 10 uM after 120 mins in presence of NADPH by LC/MS/MS analysis; assay type: ADME; details: 2 h

Q: What does the source list for `COc1c(Nc2ncc(Cl)c(N[C@H]3[C@@H](C(N)=O)[C@@H]4C=C[C@H]3C4)n2)ccc2c1CC[C@@H](N1CCOCC1)CC2`?
A: half-life [1]: 17 min; IC50 (Focal adhesion kinase 1): 0.025 to 0.03 µM; AUC/dose [2]: 95 ng·h/mL; IC50 (Insulin receptor [3]): > 10 µM; Drug metabolism [4]: Metabolite_Detected; IC50 [5]: > 10 µM; AUC(0-inf) [6]: 1200 ng·h/mL; Drug metabolism [7]: Metabolite_Detected; Drug metabolism [8]: Metabolite_Detected; Drug metabolism [9]: Metabolite_Detected; IC50 (Cytochrome P450 2D6): > 10 µM; AUC/dose [10]: 246 ng·h/mL; Drug metabolism [11]: Metabolite_Detected; Drug metabolism [12]: Metabolite_Detected; IC50 (Cytochrome P450 2C9): > 10 µM; Drug metabolism [13]: Metabolite_Detected; half-life [14]: 10 to 11 min; Drug metabolism [15]: Metabolite_Detected; IC50 [16]: 0.02 to 0.042 µM; IC50 (Cytochrome P450 2C19): > 10 µM; half-life [17]: 7 to 16 min; IC50 (Insulin receptor [18]): 0.662 to 1.26 µM; Drug metabolism [19]: Metabolite_Detected; AUC/dose [20]: 299 ng·h/mL; half-life [21]: 8 to 13 min; IC50 (Cytochrome P450 1A2): > 10 µM; Drug metabolism [22]: Metabolite_Detected
